Results reported in PMC5356633, “Arctigenin functions as a selective agonist of estrogen receptor β to restrict mTORC1 activation and consequent Th17 differentiation” (Oncotarget, 2016).

Biological target: T1, ERβ (estrogen receptor β) (Homo sapiens, UniProt Q92731)
T1 construct: gene ESR2; full-length ERβ
Assay: fluorescence polarization competition binding (PolarScreen ERβ Competitor Assay, Fluormone Tracer)

T1 sequence (Q92731 whole entry): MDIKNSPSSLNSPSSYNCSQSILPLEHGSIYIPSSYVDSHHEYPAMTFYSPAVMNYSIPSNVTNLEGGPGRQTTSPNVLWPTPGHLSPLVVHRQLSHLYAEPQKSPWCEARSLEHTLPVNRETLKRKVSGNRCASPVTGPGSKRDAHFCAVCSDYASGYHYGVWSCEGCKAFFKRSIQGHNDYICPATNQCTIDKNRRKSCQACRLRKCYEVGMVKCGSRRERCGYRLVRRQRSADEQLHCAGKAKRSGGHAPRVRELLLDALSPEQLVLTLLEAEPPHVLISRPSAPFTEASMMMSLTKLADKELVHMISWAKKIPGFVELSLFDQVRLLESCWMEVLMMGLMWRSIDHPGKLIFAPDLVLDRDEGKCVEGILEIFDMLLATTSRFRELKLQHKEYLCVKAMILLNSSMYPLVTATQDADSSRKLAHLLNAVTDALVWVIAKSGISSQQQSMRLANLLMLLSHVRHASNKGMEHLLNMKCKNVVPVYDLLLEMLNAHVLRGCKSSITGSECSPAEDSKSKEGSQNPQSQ

- IC50: 3.29 µM
SMILES: COc1cc(C[C@H]2C(=O)OC[C@@H]2Cc2ccc(OC)c(OC)c2)ccc1O [ARCG, arctigenin]
